Reference: ChEMBL document CHEMBL1125667, “Receptor-based design of novel dihydrofolate reductase inhibitors: benzimidazole and indole derivatives” (J Med Chem, 1991)
Each block holds one compound with its values, some of them ahead of it.

What was measured:
[1] = molecular target: T1, Dihydrofolate reductase (Rattus norvegicus) (UniProt Q920D2); test: Inhibitory activity against Dihydrofolate reductase obtained from rat liver
T1 sequence (whole entry): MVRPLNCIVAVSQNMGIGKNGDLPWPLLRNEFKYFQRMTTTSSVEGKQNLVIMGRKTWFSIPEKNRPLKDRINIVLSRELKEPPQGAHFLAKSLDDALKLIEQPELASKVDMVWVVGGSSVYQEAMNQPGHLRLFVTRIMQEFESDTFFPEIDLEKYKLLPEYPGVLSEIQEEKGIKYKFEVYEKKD

[2] = molecular target: T2, Dihydrofolate reductase (Escherichia coli) (UniProt P0ABQ4); test: (§1) Inhibitory activity against Dihydrofolate reductase obtained from Escherichia coli
T2 sequence (whole entry): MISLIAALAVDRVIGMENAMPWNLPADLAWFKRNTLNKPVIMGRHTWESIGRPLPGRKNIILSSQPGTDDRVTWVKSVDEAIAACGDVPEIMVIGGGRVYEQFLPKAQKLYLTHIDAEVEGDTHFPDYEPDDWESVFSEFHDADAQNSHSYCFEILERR

[3] = molecular target: T3, Dihydrofolate reductase (Escherichia coli, UniProt P0ABQ4); test: as §1; details: read-out: I50
T3 sequence (P0ABQ4 whole entry): T2 sequence (whole entry)

I14 [1]: 14 µM | I31 [2]: 140 µM
Structure (SMILES): Nc1nc2c(N)c3c(cc2[nH]1)C1(CC3)SCCS1

I16 [1]: 100 µM | I14 [2]: 100 µM
Structure (SMILES): Nc1nc2c(N)cc(C(=O)c3ccccc3)cc2[nH]1

I7 [1]: 360 µM | I13 [2]: 360 µM
Structure (SMILES): Nc1nc2c(N)c3c(cc2[nH]1)CCC3

I28 [1]: 500 µM | IC50 [3]: 100 µM
Structure (SMILES): Nc1cc2c(N)cc(Cc3ccccc3)cc2[nH]1

I5 [1]: 300 µM | I42 [2]: 300 µM
Structure (SMILES): Nc1nc2c(N)cc(Cc3ccccc3)cc2[nH]1
